Key:
[1] = test system: collagen-induced arthritis in Lewis rats; assay: Rat collagen-induced arthritis model (footpad volume); assay type: in vivo; details: 19 days after first immunization
Method: Eight weeks old female Lewis rats (SLC Inc.) were immunized with bovine type II collagen (CII, Collagen Technical Study Session, product number K41) to induce arthritis. A 1:1 mixed emulsion of the incomplete Freund's adjuvant (Difco, Cat. 263910) and a 3 mg/mL solution of CII was prepared, and 0.7 mL of the emulsion was injected to each rat at seven sites in the tale base part and skins of both fore and hind legs in a volume of 0.1 mL per site. Booster immunization was performed after 7 days by injecting 0.2 mL of the same 1:1 mixed emulsion of the incomplete Freund's adjuvant and CII as that used in the first day at two sites in the tale base part in a volume of 0.1 mL per site. After 12 days, footpad volumes of the both hind feet of the animals were measured by using Plethysmometer (UGO BASILE, Cat. 37140), and the individual animals were divided into groups according to the footpad volume ratio based on that of the normal group and body weight. After they were divided into groups, administration of a test compound or a solvent (vehicle, 0.5% methylcellulose) was started, and it was orally administered twice a day for 7 days (provided that, on the day of grouping, the administration was performed only once after grouping). After the start of the administration, the footpad volumes of both hind feet of the animals were measured every other day or every 3 days by using Plethysmometer, and influence of the test compound was evaluated.
Average value of the footpad volumes was calculated for each individual on each measurement day by using Excel 2010 (Microsoft), and plotted as a graph by using GraphPadPrism 7.03 (GraphPad Software, Inc.). The normal group was defined to be a 100% suppression group, and the solvent administration group was defined to be a 0% suppression group. The suppression ratios based on these controls were calculated for each concentration of the test compound by using Excel 2010 (Microsoft).

[2] = target: human IRAK-4 (Homo sapiens (Human), UniProt Q9NWZ3); assay: Measurement of human IRAK-4 inhibitory activity (TR-FRET, peptide substrate phosphorylation, 10 μM ATP); assay type: biochemical; details: 1 nM IRAK-4, 10 μM ATP, 23° C., 30 minutes; average values
How it was run: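 With 1 nM IRAK-4, 0.5 μM biotinylated peptide and 10 μM ATP, compound incubated 30 min at 23 °C in 50 mM HEPES pH 7.2 with Mg2+/Mn2+. Stopped with EDTA plus europium-cryptate anti-phosphopeptide antibody and streptavidin-XL665, 60 min at 23 °C. Activity taken as the 665/620 nm TR-FRET ratio.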

[3] = test system: LPS-stimulated TNFα production in THP-1 cells; assay: LPS-stimulated TNFα production inhibition test using human acute monocytic leukemia cell strain THP-1; assay type: cell-based; details: LPS 2.5 ng/mL, average values
How it was run: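 THP-1 cells were preincubated with compound for 1 h at 37 °C, then stimulated with LPS (2.5 ng/mL final) for 4 h. Supernatant TNFα was quantified by HTRF (620/665 nm ratio) against a calibration curve. IC50 came from a 4-parameter logistic fit, with no-LPS set as 100% and no-compound as 0% suppression.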

Sequence of human IRAK-4 (Q9NWZ3 whole entry): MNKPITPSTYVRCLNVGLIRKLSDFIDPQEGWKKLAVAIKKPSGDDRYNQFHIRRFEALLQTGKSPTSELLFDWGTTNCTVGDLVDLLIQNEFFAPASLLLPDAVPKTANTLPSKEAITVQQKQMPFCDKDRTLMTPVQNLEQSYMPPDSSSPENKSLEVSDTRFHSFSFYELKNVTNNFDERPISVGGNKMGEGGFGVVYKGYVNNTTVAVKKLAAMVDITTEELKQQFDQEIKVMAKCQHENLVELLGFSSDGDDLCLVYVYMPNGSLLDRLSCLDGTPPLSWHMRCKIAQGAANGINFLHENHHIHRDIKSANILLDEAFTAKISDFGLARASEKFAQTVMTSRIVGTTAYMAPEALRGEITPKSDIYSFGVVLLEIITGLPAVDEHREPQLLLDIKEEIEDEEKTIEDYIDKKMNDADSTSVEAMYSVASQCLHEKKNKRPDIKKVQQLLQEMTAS

| Structure (SMILES) | IC50 [2] | IC50 ([3]; Homo sapiens, THP-1, 4 h) | IC50 ([3]; 4 hours) | suppression ratio (footpad volume) ([1]; 20 mg/kg orally twice a day) | suppression ratio (footpad volume) ([1]; 60 mg/kg orally twice a day) | suppression ratio (footpad volume) ([1]; 120 mg/kg orally twice a day) |
| --- | --- | --- | --- | --- | --- | --- |
| COc1c(-c2cnc(CO[C@H]3CCC[C@@H]3O)nc2)ccc2nc(NC(=O)C3CC3)sc12 [c-01-01, N-(6-(2-((((1S,2S)-2-Hydroxycyclopentyl)oxy)methyl)pyrimidin-5-yl)-7-methoxybenzo[d]thiazol-2-yl)cyclopropanecarboxamide] | 3.92 nM | 143 nM |  | 45% | 65% | 77% |
| C[C@H]1CN(C(=O)c2cccnc2)CCN1[C@H]1C[C@@H](C(=O)Nc2cc3cc(-c4cnc(CO[C@H]5CCC[C@@H]5O)nc4)ccn3n2)C1 [e-02-12] | 1.9 nM |  | 129 nM |  |  |  |
| CCCOCc1ncc(-c2ccn3nc(NC(=O)[C@H]4C[C@@H](N5CCN(C(=O)c6ccnc(C)c6)C[C@@H]5C)C4)cc3c2)cn1 [e-02-14] | 1.64 nM | 139 nM |  |  |  |  |
| CCCOCc1ncc(-c2ccn3nc(NC(=O)[C@H]4C[C@@H](N5CCN(C(=O)C6CCOC6)C[C@@H]5CC)C4)cc3c2)cn1 (stereo partly drawn) [e-02-15] | 1.81 nM | 167 nM |  |  |  |  |
| CCCOCc1ncc(-c2ccn3nc(NC(=O)[C@H]4C[C@@H](N5CCN(C(=O)c6ccc(C(F)(F)F)cn6)C[C@@H]5C)C4)cc3c2)cn1 [e-02-16] | 1.85 nM | 175 nM |  |  |  |  |
| CCCOCc1ncc(-c2ccn3nc(NC(=O)[C@H]4C[C@@H](N5CCN(C(=O)c6cccc(C)n6)C[C@@H]5C)C4)cc3c2)cn1 [e-02-18] | 1.84 nM | 200 nM |  |  |  |  |
| CCCOCc1ncc(-c2ccn3nc(NC(=O)[C@H]4C[C@@H](N5CCN(C(=O)N(C)C)C[C@@H]5C)C4)cc3c2)cn1 [e-02-20] | 2.22 nM | 244 nM |  |  |  |  |
| CCCOCc1ncc(-c2ccn3nc(NC(=O)[C@H]4C[C@@H](N5CCN(C(=O)c6coc(C)n6)C[C@@H]5C)C4)cc3c2)cn1 [e-02-21] | 1.73 nM | 188 nM |  |  |  |  |
| C[C@H]1CN(C(=O)c2ccon2)CCN1[C@H]1C[C@@H](C(=O)Nc2cc3cc(-c4cnc(CO[C@H]5CCC[C@@H]5O)nc4)ccn3n2)C1 [e-02-26] | 1.86 nM | 80 nM |  |  |  |  |
| COc1c(-c2cnc(CO[C@H]3CCC[C@@H]3O)nc2)ccn2nc(NC(=O)C3CC3)cc12 [e-04-01, N-(5-(2-((((1S,2S)-2-Hydroxycyclopentyl)oxy)methyl)pyrimidin-5-yl)-4-methoxypyrazolo[1,5-a]pyridin-2-yl)cyclopropanecarboxamide] | 3.74 nM | 431 nM |  |  |  |  |

Stronger by IC50 [2], values ahead:

| IC50 [2] | IC50 ([3]; Homo sapiens, THP-1, 4 h) | IC50 ([3]; 4 hours) | Structure (SMILES) | suppression ratio (footpad volume) ([1]; 20 mg/kg orally twice a day) | suppression ratio (footpad volume) ([1]; 60 mg/kg orally twice a day) | suppression ratio (footpad volume) ([1]; 120 mg/kg orally twice a day) |
| --- | --- | --- | --- | --- | --- | --- |
| 1.58 nM | 53 nM |  | C[C@H]1CN(C(=O)c2ccc(Cl)cn2)CCN1[C@H]1C[C@@H](C(=O)Nc2cc3cc(-c4cnc(CO[C@H]5CCC[C@@H]5O)nc4)ccn3n2)C1 [e-02-25] |  |  |  |
| 1.38 nM | 54 nM |  | Cc1cc(C(=O)N2CCN([C@H]3C[C@@H](C(=O)Nc4cc5cc(-c6cnc(CO[C@H]7CCC[C@@H]7O)nc6)ccn5n4)C3)[C@@H](C)C2)cc(C)n1 [e-02-27] |  |  |  |
| 1.36 nM | 200 nM |  | CCCOCc1ncc(-c2ccn3nc(NC(=O)[C@H]4C[C@@H](N5CCN(C(=O)c6ccnc(C(F)(F)F)c6)C[C@@H]5C)C4)cc3c2)cn1 [e-02-17] |  |  |  |
| 1.29 nM | 106 nM |  | CCCOCc1ncc(-c2ccn3nc(NC(=O)[C@H]4C[C@@H](N5CCN(C(=O)c6ccc(Cl)cn6)C[C@@H]5C)C4)cc3c2)cn1 [e-02-22] |  |  |  |
| 1.27 nM | 117 nM |  | Cc1nc(C(=O)N2CCN([C@H]3C[C@@H](C(=O)Nc4cc5cc(-c6cnc(CO[C@H]7CCC[C@@H]7O)nc6)ccn5n4)C3)[C@@H](C)C2)co1 [e-02-24] |  |  |  |
| 1.19 nM | 191 nM |  | CCCOCc1ncc(-c2ccn3nc(NC(=O)[C@H]4C[C@@H](N5CCN(C(=O)C6CCOCC6)C[C@@H]5CC)C4)cc3c2)cn1 [e-02-19] |  |  |  |
| 1.07 nM |  | 314 nM | COc1c(-c2cnc(CO[C@H]3CCC[C@H]3O)nc2)ccn2nc(NC(=O)C3CC3)cc12 [e-04-02] |  |  |  |
| 0.88 nM | 111 nM |  | CCCOCc1ncc(-c2ccn3nc(NC(=O)[C@H]4C[C@@H](N5CCN(C(=O)c6cc(C)nc(C)c6)C[C@@H]5C)C4)cc3c2)cn1 [e-02-23] |  |  |  |

— patent publication US20240025893A1, “PYRIMIDINE-AND NITROGEN-CONTAINING BICYCLIC COMPOUND” (Asahi Kasei Pharma Corporation, priority 2020, published 2024)
